Experimental data published in patent publication US20230416249A1, “N-[2-({4-[3-(ANILINO)-4-OXO-4,5,6,7-TETRAHYDRO-1H-PYRROLO[3,2-C]PYRIDIN-2-YL]PYRIDIN-3-YL)OXY)ETHYL]PROP-2-ENAMIDE DERIVATIVES AND SIMILAR COMPOUNDS AS EGFR INHIBITORS FOR THE TREATMENT OF CANCER” (Bayer Aktiengesellschaft, priority 2020, published 2023).
“And” between values parts separate entries of the source, which are not always exact repeats. Equal values may be shown once.

Experiments:
[1] = molecular target: T1, mutEGFR (D770_N771insSVD) (Homo sapiens, UniProt P00533, DUP768-770); assay: Exon20-Mutant-EGFR(D770_N771insSVD) kinase assay (TR-FRET); type: biochemical; conditions: GST-EGFR ins SVD, 2 mM ATP, 15 min pre-incubation
T1 construct: GST-EGFR #3 (SVD between D770 and N771); made in house; host or cells: Sf9 insect cells (baculovirus)
Text: Inhibitory activity of compounds of the present invention against an Epidermal Growth Factor Receptor (EGFR) with an insertion of the amino acids sequence SVD between D770 and N771 was quantified employing the TR-FRET based kinase activity assay as described in the following paragraphs.
A recombinant fusion protein of N-terminal Glutathion-S-Transferase (GST) and a fragment of human EGFR variant (amino acids R669 to A1210 with insertion of the amino acids sequence SVD between D770 and N771 (“EGFR ins SVD”), expressed in Sf9 insect cells and purified via affinity chromatography using Glutathion Sepharose as described above, was used as a kinase. As substrate for the kinase reaction the biotinylated peptide biotin-Ahx-AEEEEYFELVAKKK (SEQ ID NO: 6) (C-terminus in amide form) was used which can be purchased e.g. form the company Biosynthan GmbH (Berlin-Buch, Germany).
For the assay 50 nl of a 100-fold concentrated solution of the test compound in DMSO was pipetted into either a black low volume 384 well microtiter plate or a black 1536 well microtiter plate (both Greiner Bio-One, Frickenhausen, Germany), 2 μl of a solution of EGFR in aqueous assay buffer [50 mM Hepes pH 7.0, 10 mM MgCl2, 1 mM dithiothreitol, 0.5 mM EGTA, 0.3 mM activated sodium ortho-vanadate, 0.005% (w/v) bovine serum albumin, 0.005% (v/v) Tween-20] were added and the mixture was incubated for 15 min at 22° C. to allow pre binding of the test compounds to the enzyme before the start of the kinase reaction. Then the kinase reaction was started by the addition of 3 μL of a solution of adenosine tri phosphate (ATP, 3.33 mM=>final conc. in the 5 μL assay volume is 2 mM) and substrate (1.67 μM=>final conc. in the 5 μL assay volume is 1 μM) in assay buffer and the resulting mixture was incubated for a reaction time of 30 min at 22° C. The concentration of EGFR was adjusted depending of the activity of the enzyme lot and was chosen appropriate to have the assay in the linear range, typical concentration was 15 pg/μl. The reaction was stopped by the addition of 3 μl of a solution of HTRF detection reagents (83.3 nM streptavidine-XL665 [Cisbio Bioassays, Codolet, France] and 1.67 nM PT66-Tb-Cryptate, a terbium-cryptate labelled anti-phospho-tyrosine antibody from Cisbio Bioassays [instead of the PT66 Tb cryptate PT66 Eu Chelate from Perkin Elmer can also be used]) in an aqueous EDTA-solution (133.3 mM EDTA, 0.2% (w/v) bovine serum albumin in 50 mM HEPES pH 7.5).
The resulting mixture was incubated 1 h at 22° C. to allow the binding of the biotinylated phosphorylated peptide to the streptavidine-XL665 and the PT66-Tb-Cryptate. Subsequently the amount of phosphorylated substrate was evaluated by measurement of the resonance energy transfer from the PT66-Tb-Cryptate to the streptavidine-XL665. Therefore, the fluorescence emissions at 620 nm and 665 nm after excitation at 337 nm were measured in a HTRF reader, e.g. a Pherastar (BMG Labtechnologies, Offenburg, Germany) or a Viewlux (Perkin-Elmer). The ratio of the emissions at 665 nm and at […] was taken as the measure for the amount of phosphorylated substrate. The data were normalised (enzyme reaction without inhibitor=0% inhibition, all other assay components but no enzyme=100% inhibition).

Ba/F3-EGFR-insSVD cells = Ba/F3-EGFR-insSVD cells (Homo sapiens, UniProt P00533, DUP768-770, cells depend on it); assay: Ba/F3 cell survival assay (Cell Titer-Glo), EGFR-insSVD; type: cell-based; conditions: 48 h, without IL-3, 10 ng/mL EGF; read-out: BA/F3 (insSVD) IC50
Experimental: (§1) 293T cells from ATCC were transfected with pBABEpuro expression constructs for WT EGFR or EGFR-insSVD, or EGFR-insSVD T790M, and pCL-Eco packaging vector using Fugene-6 transfection reagent from Promega. Plates were incubated at 37° C. for 48 h. Retrovirus was harvested by filtering the media supernatant through a 0.45 μm filter.
(§2) Ba/F3 cells purchased from DSMZ were grown in RPMI+10% FBS+10 ng/mL IL-3 and infected with filtered retroviral supernatant at a 1:2 dilution. Polybrene was added to a concentration of 8 μg/mL, plates were spun for 90 min, and incubated for 16 h at 37° C. 2 μg/mL puromycin was added to the infected cells 24 h after infection and cells were continually grown in the presence of puromycin and 10 ng/mL IL-3. Following stably expressing Ba/F3 cell lines were generated: Ba/F3-EGFR-WT, Ba/F3-EGFR-insSVD, Ba/F3-EGFR-insSVD T790M, (Ba/F3—vector-control).
(§3) For cell survival assays, Ba/F3 cells were grown to a density of 1-2 million cells per mL, spun down and resuspended in media without IL-3, and replated at a concentration 200,000-500,000 cells per mL. The cells ectopically expressing WT EGFR, EGFR-insSVD, or EGFR-insSVD T790M were plated with 10 ng/mL Millipore Culture grade EGF. The cells ectopically expressing pBABEpuro empty vector were plated with 10 ng/mL IL-3.
(§4) 2 days later, cells were plated in 50 μL in a 384 well plate at a concentration of 4000 cells per well for cells assayed in the absence of IL-3 and 2000 cells per well for cells assayed in the presence of IL-3. 100 nL of compound was added to each well using a 100 nL pin head, and plates were incubated at 37° C. for 48 h.
(§5) Cell viability was measured by adding 20 μL of Cell Titer-Glo Luminescent Cell Viability Reagent diluted 1:3 in PBS. Plates were sealed with Perkin Elmer Top-Seal, inverted several times to mix, and immediately centrifuged at 1000 rpm for 2 min. Plates were incubated in low light conditions for 8-10 min and luminescence was measured.

Ba/F3-EGFR-WT cells = Ba/F3-EGFR-WT cells (Homo sapiens, UniProt P00533); assay: Ba/F3 cell survival assay (Cell Titer-Glo), WT EGFR; type: cell-based; conditions: 48 h, without IL-3, 10 ng/mL EGF; read-out: BA/F3 (wild type) IC50
Experimental: as §1, §2, §3, §4, §5

[2] = molecular target: Ba/F3-EGFR-L858R T790M cells (Homo sapiens, UniProt P00533, T790M/L858R, cells depend on it); assay: Ba/F3 cell survival assay (Cell Titer-Glo), EGFR-L858R T790M; type: cell-based; conditions: 48 h, without IL-3, 10 ng/mL EGF; read-out: BA/F3 (L858R T790M) IC50
Experimental: as §1, with “EGFR-L858R, EGFR-E746_A750del, EGFR-L858R T790M,” for “WT EGFR”, “EGFR-E746_A750del” for “EGFR-insSVD, or EGFR-insSVD”
as §2, with “Ba/F3-EGFR-L858R, Ba/F3-EGFR-E746_A750del, Ba/F3-EGFR-L858R” for “Ba/F3-EGFR-WT, Ba/F3-EGFR-insSVD, Ba/F3-EGFR-insSVD”, “or Ba/F3-EGFR-E746_A750del T790M.” for “(Ba/F3—vector-control).”
as §3, with “EGFR-L858R, EGFR-E746_A750del, EGFR-L858R T790M,” for “WT EGFR, EGFR-insSVD,”, “EGFR-E746_A750del” for “EGFR-insSVD”
as §4, §5

[3] = molecular target: Ba/F3-EGFR-E746_A750del T790M cells (Homo sapiens, UniProt P00533, DEL746-750/T790M, cells depend on it); assay: Ba/F3 cell survival assay (Cell Titer-Glo), EGFR-E746_A750del T790M; type: cell-based; conditions: 48 h, without IL-3, 10 ng/mL EGF; read-out: BA/F3 (E746_A750del T790M) IC50
Experimental: as §1, with “EGFR-L858R, EGFR-E746_A750del, EGFR-L858R T790M,” for “WT EGFR”, “EGFR-E746_A750del” for “EGFR-insSVD, or EGFR-insSVD”
as §2, with “Ba/F3-EGFR-L858R, Ba/F3-EGFR-E746_A750del, Ba/F3-EGFR-L858R” for “Ba/F3-EGFR-WT, Ba/F3-EGFR-insSVD, Ba/F3-EGFR-insSVD”, “or Ba/F3-EGFR-E746_A750del T790M.” for “(Ba/F3—vector-control).”
as §3, with “EGFR-L858R, EGFR-E746_A750del, EGFR-L858R T790M,” for “WT EGFR, EGFR-insSVD,”, “EGFR-E746_A750del” for “EGFR-insSVD”
as §4, §5

Chain of Ba/F3-EGFR-L858R T790M cells (P00533 whole entry T790M/L858R): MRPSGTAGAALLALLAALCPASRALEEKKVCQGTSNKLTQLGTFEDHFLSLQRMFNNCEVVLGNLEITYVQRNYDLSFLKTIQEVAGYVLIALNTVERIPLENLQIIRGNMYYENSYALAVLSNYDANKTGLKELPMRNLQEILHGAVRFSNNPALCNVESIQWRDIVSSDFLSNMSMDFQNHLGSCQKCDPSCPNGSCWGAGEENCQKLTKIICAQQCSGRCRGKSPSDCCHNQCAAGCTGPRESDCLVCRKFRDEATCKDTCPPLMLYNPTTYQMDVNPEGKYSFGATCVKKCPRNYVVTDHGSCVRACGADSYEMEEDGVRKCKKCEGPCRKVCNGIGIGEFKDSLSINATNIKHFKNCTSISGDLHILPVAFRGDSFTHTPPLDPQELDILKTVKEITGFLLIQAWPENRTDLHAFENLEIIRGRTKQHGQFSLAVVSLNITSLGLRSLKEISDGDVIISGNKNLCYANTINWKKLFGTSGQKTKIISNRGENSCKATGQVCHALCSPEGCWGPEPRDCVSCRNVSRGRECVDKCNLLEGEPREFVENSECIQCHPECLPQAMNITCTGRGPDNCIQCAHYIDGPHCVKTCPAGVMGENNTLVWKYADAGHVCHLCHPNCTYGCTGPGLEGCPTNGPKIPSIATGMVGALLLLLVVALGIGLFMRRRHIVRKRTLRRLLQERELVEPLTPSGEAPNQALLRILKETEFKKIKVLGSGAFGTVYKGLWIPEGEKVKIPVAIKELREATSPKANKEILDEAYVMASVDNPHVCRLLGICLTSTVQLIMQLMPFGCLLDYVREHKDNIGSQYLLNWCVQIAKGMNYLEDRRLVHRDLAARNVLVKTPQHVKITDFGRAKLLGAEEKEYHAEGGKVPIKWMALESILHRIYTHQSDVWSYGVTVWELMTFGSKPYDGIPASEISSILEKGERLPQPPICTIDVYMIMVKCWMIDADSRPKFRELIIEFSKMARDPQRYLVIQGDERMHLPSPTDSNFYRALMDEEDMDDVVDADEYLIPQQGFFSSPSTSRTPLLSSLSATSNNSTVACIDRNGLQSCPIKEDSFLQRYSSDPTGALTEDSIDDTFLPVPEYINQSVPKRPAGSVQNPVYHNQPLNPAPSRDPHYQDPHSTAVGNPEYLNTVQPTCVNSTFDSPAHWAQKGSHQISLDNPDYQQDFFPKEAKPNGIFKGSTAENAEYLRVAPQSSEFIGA
Chain of Ba/F3-EGFR-WT cells (P00533 whole entry, change not shown): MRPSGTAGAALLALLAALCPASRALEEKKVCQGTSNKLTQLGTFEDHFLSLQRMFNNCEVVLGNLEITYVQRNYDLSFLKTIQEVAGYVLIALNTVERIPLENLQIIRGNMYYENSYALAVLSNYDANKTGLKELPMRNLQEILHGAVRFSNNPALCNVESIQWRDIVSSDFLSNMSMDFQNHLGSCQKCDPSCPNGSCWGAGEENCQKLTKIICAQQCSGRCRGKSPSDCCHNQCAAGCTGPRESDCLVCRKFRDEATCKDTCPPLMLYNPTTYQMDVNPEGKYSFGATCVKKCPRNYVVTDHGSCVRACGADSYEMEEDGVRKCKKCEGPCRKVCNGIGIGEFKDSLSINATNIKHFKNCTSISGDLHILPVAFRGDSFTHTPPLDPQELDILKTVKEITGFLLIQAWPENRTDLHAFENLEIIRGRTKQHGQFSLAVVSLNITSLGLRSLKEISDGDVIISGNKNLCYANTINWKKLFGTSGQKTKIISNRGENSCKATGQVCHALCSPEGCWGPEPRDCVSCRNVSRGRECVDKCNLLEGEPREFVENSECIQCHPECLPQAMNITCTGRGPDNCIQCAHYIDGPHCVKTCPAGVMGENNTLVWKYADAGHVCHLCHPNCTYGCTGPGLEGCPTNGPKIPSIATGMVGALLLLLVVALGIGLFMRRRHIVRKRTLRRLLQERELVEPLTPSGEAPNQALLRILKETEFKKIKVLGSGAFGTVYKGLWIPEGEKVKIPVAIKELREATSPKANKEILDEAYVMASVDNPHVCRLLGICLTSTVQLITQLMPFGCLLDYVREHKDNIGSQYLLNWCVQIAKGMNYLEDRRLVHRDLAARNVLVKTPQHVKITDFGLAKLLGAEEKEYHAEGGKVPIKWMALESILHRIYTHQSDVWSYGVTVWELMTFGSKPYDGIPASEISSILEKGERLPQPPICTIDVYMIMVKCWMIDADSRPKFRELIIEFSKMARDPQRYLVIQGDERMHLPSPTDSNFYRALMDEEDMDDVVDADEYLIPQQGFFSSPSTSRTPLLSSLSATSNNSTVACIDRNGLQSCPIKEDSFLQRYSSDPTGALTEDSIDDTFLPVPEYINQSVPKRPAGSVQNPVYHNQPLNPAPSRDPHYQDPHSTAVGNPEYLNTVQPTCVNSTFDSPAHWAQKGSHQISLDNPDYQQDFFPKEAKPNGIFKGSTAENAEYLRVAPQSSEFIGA
Chain of Ba/F3-EGFR-insSVD cells (P00533 with tags, fused parts or gaps DUP768-770): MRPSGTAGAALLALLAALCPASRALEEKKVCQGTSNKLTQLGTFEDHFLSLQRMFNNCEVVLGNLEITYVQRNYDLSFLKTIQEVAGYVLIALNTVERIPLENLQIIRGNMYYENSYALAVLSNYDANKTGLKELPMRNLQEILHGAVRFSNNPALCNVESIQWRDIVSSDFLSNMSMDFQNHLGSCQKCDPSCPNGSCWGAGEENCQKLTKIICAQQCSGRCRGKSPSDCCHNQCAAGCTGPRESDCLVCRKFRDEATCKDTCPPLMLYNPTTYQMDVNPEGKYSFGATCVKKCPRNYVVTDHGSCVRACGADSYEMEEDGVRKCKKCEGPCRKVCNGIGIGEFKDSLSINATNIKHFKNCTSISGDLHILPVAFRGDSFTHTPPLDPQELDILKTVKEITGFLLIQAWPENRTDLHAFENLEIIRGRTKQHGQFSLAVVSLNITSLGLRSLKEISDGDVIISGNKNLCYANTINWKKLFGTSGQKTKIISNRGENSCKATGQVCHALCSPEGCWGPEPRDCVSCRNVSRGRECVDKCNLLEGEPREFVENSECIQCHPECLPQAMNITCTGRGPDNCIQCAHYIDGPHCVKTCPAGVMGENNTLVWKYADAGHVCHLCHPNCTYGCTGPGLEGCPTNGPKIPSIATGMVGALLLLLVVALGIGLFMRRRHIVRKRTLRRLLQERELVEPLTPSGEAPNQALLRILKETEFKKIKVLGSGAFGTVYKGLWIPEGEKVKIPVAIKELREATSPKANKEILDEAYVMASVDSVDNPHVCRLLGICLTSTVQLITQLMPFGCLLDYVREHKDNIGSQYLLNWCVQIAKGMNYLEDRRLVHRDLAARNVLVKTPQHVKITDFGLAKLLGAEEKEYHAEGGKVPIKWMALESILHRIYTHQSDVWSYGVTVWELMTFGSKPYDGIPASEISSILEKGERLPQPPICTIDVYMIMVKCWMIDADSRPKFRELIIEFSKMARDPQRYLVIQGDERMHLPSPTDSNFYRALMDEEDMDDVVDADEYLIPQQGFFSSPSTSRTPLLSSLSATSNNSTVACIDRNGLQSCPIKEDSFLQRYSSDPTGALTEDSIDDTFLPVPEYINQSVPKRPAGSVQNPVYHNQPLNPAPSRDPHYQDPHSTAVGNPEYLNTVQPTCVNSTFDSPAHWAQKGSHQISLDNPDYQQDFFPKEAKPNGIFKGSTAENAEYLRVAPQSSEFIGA
T1 sequence (P00533 with tags, fused parts or gaps DUP768-770): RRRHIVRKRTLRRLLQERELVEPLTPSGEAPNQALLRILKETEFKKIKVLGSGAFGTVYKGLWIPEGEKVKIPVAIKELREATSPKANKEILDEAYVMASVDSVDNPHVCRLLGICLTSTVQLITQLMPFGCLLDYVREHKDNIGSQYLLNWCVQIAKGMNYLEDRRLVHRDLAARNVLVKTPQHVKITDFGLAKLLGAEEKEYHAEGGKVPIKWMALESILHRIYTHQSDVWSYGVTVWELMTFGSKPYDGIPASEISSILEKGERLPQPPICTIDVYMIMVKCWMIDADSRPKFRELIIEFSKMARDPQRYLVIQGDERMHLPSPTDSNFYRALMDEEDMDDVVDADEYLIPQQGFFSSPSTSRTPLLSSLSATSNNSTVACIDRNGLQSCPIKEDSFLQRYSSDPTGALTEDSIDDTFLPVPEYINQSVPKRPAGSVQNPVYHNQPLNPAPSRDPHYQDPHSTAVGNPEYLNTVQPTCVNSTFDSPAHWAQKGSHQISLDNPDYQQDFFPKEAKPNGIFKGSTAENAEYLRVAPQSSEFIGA

Row | Compound | IC50 [1] [nM] | GI50 (Ba/F3-EGFR-insSVD cells) [nM] | GI50 (Ba/F3-EGFR-WT cells) [nM] | GI50 [2] | GI50 [3] [nM]
1 | C=CC(=O)NCCOc1cnccc1-c1[nH]c2c(c1Nc1cccc(Cl)c1OC)C(=O)NCC2 [Example 1, N-[2-({4-[3-(3-chloro-2-methoxyanilino)-4-oxo-4,5,6,7-tetrahydro-1H-pyrrolo[3,2-c]pyridin-2-yl]pyridin-3-yl}oxy)ethyl]prop-2-enamide] | 0.155 | 376 | 3030 | > 1000 nM | > 1000
2 | C=CC(=O)NCCOc1cnccc1-c1[nH]c2c(c1Nc1cccc(F)c1C)C(=O)NCC2 [Example 2, N-[2-({4-[3-(3-fluoro-2-methylanilino)-4-oxo-4,5,6,7-tetrahydro-1H-pyrrolo[3,2-c]pyridin-2-yl]pyridin-3-yl}oxy)ethyl]prop-2-enamide] | 0.386 | 57.9 | 907 | 215 nM | 25.2
3 | C=CC(=O)NCCOc1cnccc1-c1[nH]c2c(c1Nc1cccc(Cl)c1C)C(=O)NCC2 [Example 3, N-[2-({4-[3-(3-chloro-2-methylanilino)-4-oxo-4,5,6,7-tetrahydro-1H-pyrrolo[3,2-c]pyridin-2-yl]pyridin-3-yl}oxy)ethyl]prop-2-enamide] | 0.265 | 40.2 | 566 | 201 nM | 32.6
4 | C=CC(=O)NCCCOc1cnccc1-c1[nH]c2c(c1Nc1cccc(Cl)c1OC)C(=O)NCC2 [Example 4, N-[3-({4-[3-(3-chloro-2-methoxyanilino)-4-oxo-4,5,6,7-tetrahydro-1H-pyrrolo[3,2-c]pyridin-2-yl]pyridin-3-yl}oxy)propyl]prop-2-enamide] | 0.305 | 519 | 4420 | > 1000 nM | > 1000
5 | C=CC(=O)N(C)CCOc1cnccc1-c1[nH]c2c(c1Nc1cccc(Cl)c1OC)C(=O)NCC2 [Example 5, N-[2-({4-[3-(3-chloro-2-methoxyanilino)-4-oxo-4,5,6,7-tetrahydro-1H-pyrrolo[3,2-c]pyridin-2-yl]pyridin-3-yl}oxy)ethyl]-N-methylprop-2-enamide] | 0.231 | 5.77 | 68 | 12.9 nM | 3.39
6 | C=CC(=O)N(C)CCOc1cnccc1-c1[nH]c2c(c1Nc1cccc(F)c1OC)C(=O)NCC2 [Example 6, N-[2-({4-[3-(3-fluoro-2-methoxyanilino)-4-oxo-4,5,6,7-tetrahydro-1H-pyrrolo[3,2-c]pyridin-2-yl]pyridin-3-yl}oxy)ethyl]-N-methylprop-2-enamide] | 0.171 | 8.94 | 109 | 26.4 nM | 4.96
7 | C=CC(=O)N(C)CCOc1cnccc1-c1[nH]c2c(c1Nc1ccc(F)cc1)C(=O)NCC2 [Example 7, N-[2-({4-[3-(4-fluoroanilino)-4-oxo-4,5,6,7-tetrahydro-1H-pyrrolo[3,2-c]pyridin-2-yl]pyridin-3-yl}oxy)ethyl]-N-methylprop-2-enamide] | 1.62 | 146 | 366 | 274 nM | 21.9
8 | COc1c(F)cccc1Nc1c(-c2ccncc2OCCN(C)C(=O)/C=C/CN(C)C)[nH]c2c1C(=O)NCC2 [Example 8, (2E)-4-(dimethylamino)-N-[2-({4-[3-(3-fluoro-2-methoxyanilino)-4-oxo-4,5,6,7-tetrahydro-1H-pyrrolo[3,2-c]pyridin-2-yl]pyridin-3-yl}oxy)ethyl]-N-methylbut-2-enamide] | 0.554 | 240 | 4700 | > 1000 nM | 370
9 | COc1c(Cl)cccc1Nc1c(-c2ccncc2OCCN(C)C(=O)/C=C/CN(C)C)[nH]c2c1C(=O)NCC2 [Example 9, (2E)-N-[2-({4-[3-(3-chloro-2-methoxyanilino)-4-oxo-4,5,6,7-tetrahydro-1H-pyrrolo[3,2-c]pyridin-2-yl]pyridin-3-yl}oxy)ethyl]-4-(dimethylamino)-N-methylbut-2-enamide] | 2.48 | 263 | 4520 | 731 nM and > 1000 nM | 183
10 | C=CC(=O)N1CCC[C@H]1COc1cnccc1-c1[nH]c2c(c1Nc1cccc(Cl)c1OC)C(=O)NCC2 [Example 13, 3-(3-chloro-2-methoxyanilino)-2-(3-{[(2S)-1-(prop-2-enoyl)pyrrolidin-2-yl]methoxy}pyridin-4-yl)-1,5,6,7-tetrahydro-4H-pyrrolo[3,2-c]pyridin-4-one] | 0.206 | 6.69 | 51.2 |  | 
